Data reported in US20240122179A1, “AUXINIC HERBICIDES AND METHODS OF USE THEREOF” (CORTEVA AGRISCIENCE LLC, priority 2021, published 2024).
Read-outs that look alike come from different tables or passages of the source.

Experiments:
Amaranthus rudis (AMATA) = test: Postemergence herbicide evaluation, percent reduction in plant size vs untreated control, 21 days after treatment; type: in vivo, Amaranthus rudis (tall water hemp); conditions: Amaranthus tuberculatus, post-emergence, 504 h, AMATA, postemergence, read-out: Control/Injury; for pest or weed control at 140 g/ha: rate 140 g ae/ha; for pest or weed control at 280 g/ha: rate 280 g ae/ha
In short: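 Greenhouse-grown tall waterhemp (25-28° C, 16 h light) at the 2-8 leaf stage, treated by track sprayer at 187 L/ha with compound at 140 or 280 g ae/ha in acetone/DMSO-based spray solution with crop oil and surfactant. 3-4 replicates per treatment, randomized complete block; plant size reduction versus untreated control measured 21 days after treatment.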

[1] = system: Ambrosia artemisiifolia (AMBEL); test: as above; type: in vivo, Ambrosia artemisiifolia (common ragweed); conditions: post-emergence, 504 h, AMBEL, postemergence, read-out: Control/Injury; for pest or weed control at 140 g/ha: rate 140 g ae/ha; for pest or weed control at 280 g/ha: rate 280 g ae/ha
In short: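 Greenhouse-grown plants (25–28 °C, 16 h light) were sprayed postemergence at the 2–8 leaf stage with 140 or 280 g ae/ha in acetone/DMSO-based spray solution with crop oil and surfactant, at 187 L/ha by track sprayer. There were 3–4 replicates. Plant size was measured 21 days after treatment versus untreated plants.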

Kochia scoparia (KCHSC) = test: as above; type: in vivo; conditions: Bassia scoparia, post-emergence, 504 h, KCHSC, postemergence, read-out: Control/Injury; for pest or weed control at 140 g/ha: rate 140 g ae/ha; for pest or weed control at 280 g/ha: rate 280 g ae/ha
In short: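 Greenhouse-grown plants (25-28 °C, 16 h light) at the 2 to 8 leaf stage were track-sprayed postemergence at 140 or 280 g ae/ha in acetone/DMSO-based spray solution with crop oil and surfactant, at 187 L/ha, in 3-4 randomized replicates.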

[2] = system: Amaranthus palmeri (AMAPA); test: as above; type: in vivo, Amaranthus palmeri (Palmer amaranth); conditions: post-emergence, 504 h, postemergence, read-out: Control/Injury; for pest or weed control at 140 g/ha: rate 140 g ae/ha; for pest or weed control at 280 g/ha: rate 280 g ae/ha
In short: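 Greenhouse-grown Palmer amaranth (25 to 28° C, 16 h light) sprayed postemergence at the 2 to 8 leaf stage with 140 or 280 g ae/ha in acetone/DMSO-based solution containing crop oil concentrate, 187 L/ha by track sprayer. Three to four replicates; plant size measured 21 days after treatment as percent reduction versus untreated control.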

[3] = system: Conyza canadensis (L.) (ERICA); test: as above; type: in vivo, Conyza canadensis (L.) (Horseweed); conditions: Erigeron canadensis, post-emergence, 504 h, ERICA, postemergence, read-out: Control/Injury; for pest or weed control at 140 g/ha: rate 140 g ae/ha; for pest or weed control at 280 g/ha: rate 280 g ae/ha
In short: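 Horseshoe-weed (horseweed) seedlings at 2 to 8 leaf stage in greenhouse (25-28° C, 16 h light), sprayed postemergence at 140 or 280 g ae/ha in acetone/DMSO-based spray solution, 187 L/ha track-sprayer. Randomized complete block, 3-4 replicates; plant size measured 21 days after treatment as percent reduction vs untreated controls.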

Glycine max = test: whole plant or invertebrate; conditions: for plant injury at 140 g/ha / plant injury at 280 g/ha: Glycine max, post-emergence, 504 h, read-out: Control/Injury
In short: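 Greenhouse soybean (25–28 °C, 16 h light) sprayed post-emergence at 2–8 leaf stage with 140 or 280 g ae/ha in acetone/DMSO-based spray solution with crop oil concentrate, 187 L/ha by track sprayer; 3–4 replicates, randomized blocks. Plant size reduction versus untreated control measured 21 days after treatment.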

[4] = percent reduction vs untreated, 21 days after treatment
[5] = R-AMAPA, percent reduction vs untreated control, 21 days after treatment
[6] = percent reduction vs untreated control, 21 days after treatment

Compound	pest or weed control at 140 g/ha (Amaranthus rudis (AMATA)) [%]	pest or weed control at 280 g/ha (Amaranthus rudis (AMATA)) [%]	pest or weed control at 140 g/ha [1] [%]	pest or weed control at 280 g/ha [1] [%]	pest or weed control at 140 g/ha (Kochia scoparia (KCHSC); [4]) [%]	pest or weed control at 280 g/ha (Kochia scoparia (KCHSC); [4]) [%]	pest or weed control at 140 g/ha [2, 5] [%]	pest or weed control at 280 g/ha [2, 5] [%]	Control/Injury (Glycine max; in vivo)	pest or weed control at 140 g/ha [3, 6] [%]	pest or weed control at 280 g/ha [3, 6] [%]	plant injury at 140 g/ha (Glycine max) [%]	plant injury at 280 g/ha (Glycine max) [%]	pest or weed control at 140 g/ha ([2]; AMAPA) [%]	pest or weed control at 280 g/ha ([2]; AMAPA) [%]	pest or weed control at 140 g/ha [3] [%]	pest or weed control at 280 g/ha [3] [%]	other results
COc1c(Cl)ccc(Cl)c1C(=O)O/N=C(\N)CCC/C(N)=N/OC(=O)c1c(Cl)ccc(Cl)c1OC [Compound A-144]	71	77	88	88	89	99	59	71	0									pest or weed control at 140 g/ha [3, 4]: 83%; pest or weed control at 280 g/ha [3, 4]: 75%
COc1c(Cl)ccc(Cl)c1C(=O)OCC[N+](C)(C)C [Compound A-63]	58	77	82	97			73	87		85	92							pest or weed control at 140 g/ha (Kochia scoparia (KCHSC)): 92%; pest or weed control at 280 g/ha (Kochia scoparia (KCHSC)): 97%; Control/Injury (Glycine max; GLXMA (soybean crop injury), rate 140 g ae/ha, postemergence, percent reduction vs untreated control, 21 days after treatment): 2; Control/Injury (Glycine max; GLXMA (soybean crop injury), rate 280 g ae/ha, postemergence, percent reduction vs untreated control, 21 days after treatment): 5
COc1c(Cl)ccc(Cl)c1C(=O)Oc1ccc(Cl)cc1 [Compound A-76]	68	67	80	83			55	65		68	55	4	4					pest or weed control at 140 g/ha (Kochia scoparia (KCHSC)): 83%; pest or weed control at 280 g/ha (Kochia scoparia (KCHSC)): 87%
COc1c(Cl)ccc(Cl)c1C(=O)NCc1ccccc1 [Compound A-114]	0	5	5	0	0	0			3					5	5	2	7	
COc1c(Cl)ccc(Cl)c1C(=O)ONC(=O)c1cccnc1 [Compound A-94]	68		75	83	93	98	73	80	15	62	77	12	3	83	99	95	99	pest or weed control at 140 g/ha (Kochia scoparia (KCHSC); [6]): 85%; pest or weed control at 280 g/ha (Kochia scoparia (KCHSC); [6]): 93%
COc1c(Cl)ccc(Cl)c1C(=O)OC(=O)c1c(Cl)ccc(Cl)c1OC [Compound A-90]	22	18	57	67			32	40		30	25	8	3					pest or weed control at 140 g/ha (Kochia scoparia (KCHSC); [6]): 17%; pest or weed control at 280 g/ha (Kochia scoparia (KCHSC); [6]): 32%
COc1c(Cl)ccc(Cl)c1C(=O)Oc1cc(C(F)(F)F)n(C)n1 [Compound A-118]	68	80	80	97	83	99			8					63	73	93	96	
